PubChem BioAssay (NCI)
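GI50 = concentration required for 50% inhibition of growth. At the TGI there is no net growth.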

Experiments:
Experiment in all cases: NCI tumour cell line growth inhibition, 384-well format
NCI-H23 lung = test system: NCI-H23 lung
HS 578T breast = test system: HS 578T breast
SR leukemia = test system: SR leukemia
PC-3 prostate = test system: PC-3 prostate
CAKI-1 renal = test system: CAKI-1 renal
786-0 renal = test system: 786-0 renal
HT29 colon = test system: HT29 colon
MCF7 breast = test system: MCF7 breast
SNB-75 CNS = test system: SNB-75 CNS
HOP-92 NSCLC = test system: HOP-92 NSCLC
K-562 leukemia = test system: K-562 leukemia
SNB-19 CNS = test system: SNB-19 CNS
OVCAR-5 ovarian = test system: OVCAR-5 ovarian
OVCAR-4 ovarian = test system: OVCAR-4 ovarian
MALME-3M melanoma = test system: MALME-3M melanoma
SF-539 CNS = test system: SF-539 CNS
UO-31 renal = test system: UO-31 renal
NCI-H322M lung = test system: NCI-H322M lung
SW-620 colon = test system: SW-620 colon
IGROV1 ovarian = test system: IGROV1 ovarian
EKVX NSCLC = test system: EKVX NSCLC
HCT-116 colon = test system: HCT-116 colon
NCI/ADR-RES ovarian = test system: NCI/ADR-RES ovarian
CCRF-CEM leukemia = test system: CCRF-CEM leukemia
LOX IMVI melanoma = test system: LOX IMVI melanoma
NCI-H460 NSCLC = test system: NCI-H460 NSCLC
A549 NSCLC = test system: A549 NSCLC
UACC-62 melanoma = test system: UACC-62 melanoma
DU-145 prostate = test system: DU-145 prostate
TK-10 renal = test system: TK-10 renal
SK-MEL-5 melanoma = test system: SK-MEL-5 melanoma
A498 renal = test system: A498 renal
KM12 colon = test system: KM12 colon
SK-OV-3 ovarian = test system: SK-OV-3 ovarian
M14 melanoma = test system: M14 melanoma
HOP-62 NSCLC = test system: HOP-62 NSCLC
SF-268 CNS = test system: SF-268 CNS
ACHN renal = test system: ACHN renal
COLO 205 colon = test system: COLO 205 colon
HCC-2998 colon = test system: HCC-2998 colon
U251 glioblastoma = test system: U251 glioblastoma
NCI-H226 lung = test system: NCI-H226 lung
MOLT-4 leukemia = test system: MOLT-4 leukemia
RXF 393 renal = test system: RXF 393 renal
SK-MEL-28 melanoma = test system: SK-MEL-28 melanoma
SN12C renal = test system: SN12C renal
HCT-15 colon = test system: HCT-15 colon
MDA-MB-231 breast = test system: MDA-MB-231 breast
UACC-257 melanoma = test system: UACC-257 melanoma
HL-60(TB) leukemia = test system: HL-60(TB) leukemia
SF-295 CNS = test system: SF-295 CNS
MDA-MB-468 breast = test system: MDA-MB-468 breast
BT-549 breast = test system: BT-549 breast
SK-MEL-2 melanoma = test system: SK-MEL-2 melanoma
NCI-H522 lung = test system: NCI-H522 lung
T-47D breast = test system: T-47D breast

Compound: Cc1cncc2cccc(S(=O)(=O)N3CCCNC[C@@H]3C)c12
- GI50 (NCI-H23 lung): 10.8 µM
- TGI (NCI-H23 lung): 52 µM
- GI50 (HS 578T breast): 1.89 µM
- TGI (HS 578T breast): 4.55 µM
- GI50 (SR leukemia): 0.227 µM
- TGI (SR leukemia): 0.389 µM
- GI50 (PC-3 prostate): 8.81 µM
- TGI (PC-3 prostate): > 100 µM
- GI50 (CAKI-1 renal): 7.51 µM
- TGI (CAKI-1 renal): 24.7 µM
- GI50 ([…]-0 renal): 13.6 µM
- TGI (786-0 renal): > 100 µM
- GI50 (HT29 colon): 4.96 µM
- TGI (HT29 colon): > 100 µM
- GI50 (MCF7 breast): 28 µM
- TGI (MCF7 breast): > 100 µM
- GI50 (SNB-75 CNS): 1.66 µM
- TGI (SNB-75 CNS): 10 µM
- GI50 (HOP-92 NSCLC): 10.3 µM
- TGI (HOP-92 NSCLC): 36.1 µM
- GI50 (K-562 leukemia): 0.537 µM
- TGI (K-562 leukemia): > 100 µM
- GI50 (SNB-19 CNS): 8.41 µM
- TGI (SNB-19 CNS): > 100 µM
- GI50 (OVCAR-5 ovarian): 25.5 µM
- TGI (OVCAR-5 ovarian): > 100 µM
- GI50 (OVCAR-4 ovarian): > 100 µM
- TGI (OVCAR-4 ovarian): > 100 µM
- GI50 (MALME-3M melanoma): > 100 µM
- TGI (MALME-3M melanoma): > 100 µM
- GI50 (SF-539 CNS): 4.32 µM
- TGI (SF-539 CNS): 20.1 µM
- GI50 (UO-31 renal): 10.6 µM
- TGI (UO-31 renal): 24 µM
- GI50 (NCI-H322M lung): 87.7 µM
- TGI (NCI-H322M lung): > 100 µM
- GI50 (SW-620 colon): 2.74 µM
- TGI (SW-620 colon): 10.7 µM
- GI50 (IGROV1 ovarian): 7.65 µM
- TGI (IGROV1 ovarian): 58.1 µM
- GI50 (EKVX NSCLC): 16.3 µM
- TGI (EKVX NSCLC): > 100 µM
- GI50 (HCT-116 colon): 7.52 µM
- TGI (HCT-116 colon): 48 µM
- GI50 (NCI/ADR-RES ovarian): 3.63 µM
- TGI (NCI/ADR-RES ovarian): > 100 µM
- GI50 (CCRF-CEM leukemia): 1.25 µM
- TGI (CCRF-CEM leukemia): 2.57 µM
- GI50 (LOX IMVI melanoma): 12.1 µM
- TGI (LOX IMVI melanoma): 31.8 µM
- GI50 (NCI-H460 NSCLC): 2.54 µM
- TGI (NCI-H460 NSCLC): 67.8 µM
- GI50 (A549 NSCLC): 11.2 µM
- TGI (A549 NSCLC): 49.4 µM
- GI50 (UACC-62 melanoma): 2.04 µM
- TGI (UACC-62 melanoma): 50.2 µM
- GI50 (DU-145 prostate): 5.94 µM
- TGI (DU-145 prostate): > 100 µM
- GI50 (TK-10 renal): 10.1 µM
- TGI (TK-10 renal): 37.3 µM
- GI50 (SK-MEL-5 melanoma): 5.64 µM
- TGI (SK-MEL-5 melanoma): > 100 µM
- GI50 (A498 renal): > 100 µM
- TGI (A498 renal): > 100 µM
- GI50 (KM12 colon): 16.4 µM
- TGI (KM12 colon): 81.2 µM
- GI50 (SK-OV-3 ovarian): 18.5 µM
- TGI (SK-OV-3 ovarian): > 100 µM
- GI50 (M14 melanoma): > 100 µM
- TGI (M14 melanoma): > 100 µM
- GI50 (HOP-62 NSCLC): 11.3 µM
- TGI (HOP-62 NSCLC): 62.4 µM
- GI50 (SF-268 CNS): 11.7 µM
- TGI (SF-268 CNS): 87.3 µM
- GI50 (ACHN renal): 25.9 µM
- TGI (ACHN renal): > 100 µM
- GI50 (COLO 205 colon): 3.03 µM
- TGI (COLO 205 colon): 11 µM
- GI50 (HCC-2998 colon): 42.4 µM
- TGI (HCC-2998 colon): > 100 µM
- GI50 (U251 glioblastoma): 5.17 µM
- TGI (U251 glioblastoma): > 100 µM
- GI50 (NCI-H226 lung): 13.2 µM
- TGI (NCI-H226 lung): 68.2 µM
- GI50 (MOLT-4 leukemia): 0.492 µM
- TGI (MOLT-4 leukemia): 1.65 µM
- GI50 (RXF 393 renal): 5.06 µM
- TGI (RXF 393 renal): 22.6 µM
- GI50 (SK-MEL-28 melanoma): > 100 µM
- TGI (SK-MEL-28 melanoma): > 100 µM
- GI50 (SN12C renal): 15.1 µM
- TGI (SN12C renal): 61.1 µM
- GI50 (HCT-15 colon): 11.2 µM
- TGI (HCT-15 colon): > 100 µM
- GI50 (MDA-MB-231 breast): 14.9 µM
- TGI (MDA-MB-231 breast): 43.8 µM
- GI50 (UACC-257 melanoma): > 100 µM
- TGI (UACC-257 melanoma): > 100 µM
- GI50 (HL-60(TB) leukemia): 1.49 µM
- TGI (HL-60(TB) leukemia): 3.09 µM
- GI50 (SF-295 CNS): 4.35 µM
- TGI (SF-295 CNS): > 100 µM
- GI50 (MDA-MB-468 breast): 1.02 µM
- TGI (MDA-MB-468 breast): 2.28 µM
- GI50 (BT-549 breast): 1.8 µM
- TGI (BT-549 breast): 7.48 µM
- GI50 (SK-MEL-2 melanoma): 7.56 µM
- TGI (SK-MEL-2 melanoma): 42.4 µM
- GI50 (NCI-H522 lung): 1.71 µM
- TGI (NCI-H522 lung): 5.04 µM
- GI50 (T-47D breast): > 100 µM
- TGI (T-47D breast): > 100 µM
